Test results taken from patent US11279699B2 (Suzhou Longbiotech Pharmaceuticals Co., Ltd., priority 2016, dated 2022).

What was measured:
Assay type in all cases: biochemical
[1] = molecular target: JAK2 (Homo sapiens (Human), UniProt O60674); experiment: Inhibition of JAK, luminescence kinase assay (ADP-Glo), JAK2; conditions: purified recombinant JAK2
Description: (§1) The study of the effect of compounds on the activity of purified recombinant JAK was performed by studying the inhibitory activity of the compounds on JAK from the enzymatic level. The experimental principle is to use a luminescence kinase assay to detect the ADP content produced by the reaction of JAK with the substrate Poly (4:1 Glu, Tyr) peptide: after ADP is converted to ATP, ATP can act as a substrate for the Ultra-Glo luciferase catalytic reaction, producing an optical signal. The luminescence signal is positively correlated with the amount of ADP and kinase activity. Therefore, the inhibitory effect of the compounds on the recombinant JAK was determined by observing the luminescence signal produced by the reaction of JAK and the substrate, and was expressed by IC50.
(§2) Experimental method: 10 different concentrations of compounds were incubated with JAK1, JAK2 and JAK3, respectively, for 60 minutes at 37° C. The substrate and ATP were then added, mixed, and reacted at 37° C. for 50 minutes. 25 μl of ADP-Glo™ was added and mixed for 2 minutes. The reaction was carried out for 50 minutes at room temperature. Further, 50 μl of the detection reagent was added and mixed for 2 minutes, and incubated at room temperature for 50 minutes, and detected by a chemiluminometer.

[2] = molecular target: JAK1 (Homo sapiens (Human), UniProt P23458); experiment: Inhibition of JAK, luminescence kinase assay (ADP-Glo), JAK1; conditions: for IC50: purified recombinant JAK1
Sequence of JAK1 (P23458 whole entry): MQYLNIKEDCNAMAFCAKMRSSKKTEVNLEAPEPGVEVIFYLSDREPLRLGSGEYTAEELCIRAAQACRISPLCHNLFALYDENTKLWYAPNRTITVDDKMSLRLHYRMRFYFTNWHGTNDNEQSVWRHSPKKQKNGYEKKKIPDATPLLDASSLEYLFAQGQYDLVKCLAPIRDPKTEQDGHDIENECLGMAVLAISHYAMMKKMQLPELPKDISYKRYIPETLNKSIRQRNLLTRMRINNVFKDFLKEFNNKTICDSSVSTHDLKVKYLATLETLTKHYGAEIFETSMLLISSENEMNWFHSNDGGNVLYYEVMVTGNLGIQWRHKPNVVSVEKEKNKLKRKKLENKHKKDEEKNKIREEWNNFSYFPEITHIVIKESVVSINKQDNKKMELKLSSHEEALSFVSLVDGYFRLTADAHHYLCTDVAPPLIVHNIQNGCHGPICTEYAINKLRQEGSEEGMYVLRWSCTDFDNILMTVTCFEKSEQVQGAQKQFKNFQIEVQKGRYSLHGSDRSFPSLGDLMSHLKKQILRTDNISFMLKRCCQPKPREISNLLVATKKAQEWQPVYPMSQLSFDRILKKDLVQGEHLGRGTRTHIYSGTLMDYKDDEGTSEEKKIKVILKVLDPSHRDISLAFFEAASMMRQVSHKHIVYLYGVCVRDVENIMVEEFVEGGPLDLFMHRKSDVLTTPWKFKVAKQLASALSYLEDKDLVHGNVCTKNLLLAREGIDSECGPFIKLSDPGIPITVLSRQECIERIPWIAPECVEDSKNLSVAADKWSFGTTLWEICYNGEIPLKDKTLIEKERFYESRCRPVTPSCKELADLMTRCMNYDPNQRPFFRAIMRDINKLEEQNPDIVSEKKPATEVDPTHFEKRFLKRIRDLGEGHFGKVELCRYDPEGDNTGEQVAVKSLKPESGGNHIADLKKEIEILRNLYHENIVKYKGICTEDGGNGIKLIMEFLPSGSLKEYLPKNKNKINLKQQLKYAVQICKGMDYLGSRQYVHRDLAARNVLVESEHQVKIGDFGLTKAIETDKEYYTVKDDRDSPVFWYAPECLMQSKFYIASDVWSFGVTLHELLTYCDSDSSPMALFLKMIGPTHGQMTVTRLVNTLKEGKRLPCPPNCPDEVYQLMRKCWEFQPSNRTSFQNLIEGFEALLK
Description: as §1, §2

[3] = molecular target: JAK3 (Homo sapiens (Human), UniProt P52333); experiment: Inhibition of JAK, luminescence kinase assay (ADP-Glo), JAK3; conditions: purified recombinant JAK3
Sequence of JAK3 (P52333 whole entry): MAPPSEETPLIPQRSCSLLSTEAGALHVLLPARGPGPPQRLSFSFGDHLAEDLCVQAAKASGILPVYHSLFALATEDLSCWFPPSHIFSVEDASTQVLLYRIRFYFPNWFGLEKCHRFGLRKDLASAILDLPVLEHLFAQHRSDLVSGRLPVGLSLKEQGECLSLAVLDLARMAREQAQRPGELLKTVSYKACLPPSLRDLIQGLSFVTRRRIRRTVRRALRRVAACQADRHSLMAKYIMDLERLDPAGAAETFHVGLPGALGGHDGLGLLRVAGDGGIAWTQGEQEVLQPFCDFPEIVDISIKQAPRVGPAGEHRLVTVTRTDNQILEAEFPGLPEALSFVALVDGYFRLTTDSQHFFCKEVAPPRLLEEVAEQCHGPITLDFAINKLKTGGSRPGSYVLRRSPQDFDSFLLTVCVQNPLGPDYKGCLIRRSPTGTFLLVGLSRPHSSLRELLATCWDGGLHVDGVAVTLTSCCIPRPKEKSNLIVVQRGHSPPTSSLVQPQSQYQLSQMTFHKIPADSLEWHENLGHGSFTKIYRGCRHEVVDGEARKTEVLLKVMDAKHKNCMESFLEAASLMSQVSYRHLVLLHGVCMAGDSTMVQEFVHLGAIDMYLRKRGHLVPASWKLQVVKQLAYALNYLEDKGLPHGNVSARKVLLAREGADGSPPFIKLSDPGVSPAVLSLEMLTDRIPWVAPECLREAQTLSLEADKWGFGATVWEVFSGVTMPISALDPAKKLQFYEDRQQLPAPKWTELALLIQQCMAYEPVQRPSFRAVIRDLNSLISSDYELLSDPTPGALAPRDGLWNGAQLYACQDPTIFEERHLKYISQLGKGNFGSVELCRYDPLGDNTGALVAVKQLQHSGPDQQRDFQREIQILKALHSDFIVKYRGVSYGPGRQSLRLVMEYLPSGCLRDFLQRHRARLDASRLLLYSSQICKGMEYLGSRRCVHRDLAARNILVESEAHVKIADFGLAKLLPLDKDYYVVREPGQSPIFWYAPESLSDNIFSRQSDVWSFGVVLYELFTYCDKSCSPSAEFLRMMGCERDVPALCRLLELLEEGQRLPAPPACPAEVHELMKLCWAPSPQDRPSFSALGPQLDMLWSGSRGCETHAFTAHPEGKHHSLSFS
Description: as §1, §2

[4] = Table 2, same experimental conditions

Sequence of JAK2 (O60674 whole entry): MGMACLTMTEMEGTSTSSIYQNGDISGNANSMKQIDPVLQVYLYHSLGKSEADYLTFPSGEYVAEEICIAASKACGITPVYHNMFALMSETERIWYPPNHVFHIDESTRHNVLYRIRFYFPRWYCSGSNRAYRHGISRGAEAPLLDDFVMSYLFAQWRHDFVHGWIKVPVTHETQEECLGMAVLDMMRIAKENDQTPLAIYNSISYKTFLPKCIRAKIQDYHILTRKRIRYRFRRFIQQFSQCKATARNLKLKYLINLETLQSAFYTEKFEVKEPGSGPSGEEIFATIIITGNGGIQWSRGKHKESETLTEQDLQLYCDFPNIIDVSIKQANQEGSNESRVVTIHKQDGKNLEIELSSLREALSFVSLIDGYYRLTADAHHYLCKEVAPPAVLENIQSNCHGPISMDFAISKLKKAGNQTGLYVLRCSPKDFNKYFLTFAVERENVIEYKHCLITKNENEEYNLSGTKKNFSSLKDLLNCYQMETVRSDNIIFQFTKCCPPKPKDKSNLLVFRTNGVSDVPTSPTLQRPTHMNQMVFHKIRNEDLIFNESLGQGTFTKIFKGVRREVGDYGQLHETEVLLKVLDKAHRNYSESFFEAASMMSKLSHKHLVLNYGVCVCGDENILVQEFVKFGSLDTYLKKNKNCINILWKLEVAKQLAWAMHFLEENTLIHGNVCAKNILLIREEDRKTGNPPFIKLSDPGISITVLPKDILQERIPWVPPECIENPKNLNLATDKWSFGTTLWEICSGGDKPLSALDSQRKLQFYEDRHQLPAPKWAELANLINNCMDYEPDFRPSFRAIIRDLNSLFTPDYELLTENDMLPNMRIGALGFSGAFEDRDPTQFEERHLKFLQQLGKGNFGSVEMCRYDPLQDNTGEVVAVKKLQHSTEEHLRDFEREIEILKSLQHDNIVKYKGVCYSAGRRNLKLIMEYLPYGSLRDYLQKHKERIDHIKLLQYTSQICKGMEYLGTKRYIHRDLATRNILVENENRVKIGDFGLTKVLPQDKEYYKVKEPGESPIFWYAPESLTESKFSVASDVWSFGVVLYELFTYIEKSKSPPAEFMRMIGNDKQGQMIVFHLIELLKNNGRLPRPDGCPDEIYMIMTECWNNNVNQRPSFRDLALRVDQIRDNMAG

Row | IC50 ([1]; Table 1) [µM] | IC50 ([2]; Table 1) [µM] | IC50 ([3]; Table 1) [µM] | IC50 [1, 4] [µM] | inhibitory activity against JAK1 relative to JAK2 (selectivity) ([2]; JAK1 versus JAK2, from Table 2) [times] | IC50 [2, 4] [µM] | IC50 [3, 4] [µM] | Compound
1 | > 0.05 | < 0.02 | > 0.05 | – | – | – | – | O=S1(=O)CCN(Cc2ccc(-c3ncnc4[nH]ccc34)cc2)CC1 [Example 19, 4-(4-(7H-pyrrolo[2,3-d]pyrimidin-4-yl)benzyl)thiomorpholine 1,1-dioxide]
2 | > 0.05 | 0.02 to 0.05 | > 0.05 | 0.498 | 10 | 0.048 | 2.43 | CS(=O)(=O)C1CN(Cc2ccc(-c3cccc4nc(NC(=O)C5CC5)nn34)cc2)C1 [Example 1, N-(5-(4-((3-(methylsulfonyl)azetidin-1-yl)methyl)phenyl)-[1,2,4]triazolo[1,5-a]pyridin-2-yl]cyclopropanecarboxamide]
3 | > 0.05 | > 0.05 | > 0.05 | – | – | – | – | CS(=O)(=O)C1CN(Cc2c(F)cc(-c3cccn4nc(NC(=O)C5CC5)nc34)cc2F)C1 [Example 16, N-(8-(3,5-difluoro-4-((3-(methylsulfonyl)azetidin-1-yl)methyl)phenyl)-[1,2,4]triazolo[1,5-a]pyridin-2-yl]cyclopropanecarboxamide]
4 | > 0.05 | > 0.05 | > 0.05 | – | – | – | – | O=C(Nc1nc2c(-c3ccc(CN4CC(S(=O)(=O)C5CC5)C4)cc3)cccn2n1)C1CC1 [Example 10, N-(8-(4-((3-(cyclopropylsulfonyl)azetidin-1-yl)methyl)phenyl)-[1,2,4]triazolo[1,5-a]pyridin-2-yl]cyclopropanecarboxamide]
5 | – | 0.02 to 0.05 | – | – | – | – | – | CS(=O)(=O)C1CN(Cc2ccc(-c3cccn4nc(NC(=O)C5CC5)nc34)cc2F)C1 [Example 15, N-(8-(3-fluoro-4-((3-(methylsulfonyl)azetidin-1-yl)methyl)phenyl)-[1,2,4]triazolo[1,5-a]pyridin-2-yl]cyclopropanecarboxamide]
6 | > 0.05 | 0.02 to 0.05 | > 0.05 | – | – | – | – | CC(C)C(=O)Nc1nc2c(-c3ccc(CN4CC(S(=O)(=O)C5CC5)C4)cc3)cccn2n1 [Example 13, N-(8-(4-((3-(cyclopropylsulfonyl)azetidin-1-yl)methyl)phenyl)-[1,2,4]triazolo[1,5-a]pyridin-2-yl]isobutyramide]
7 | – | 0.02 to 0.05 | – | – | – | – | – | CS(=O)(=O)C1CN(Cc2ccc(-c3cccc4nc(NC(=O)C5CC5)nn34)cc2F)C1 [Example 2, N-(5-(3-fluoro-4-((3-(methylsulfonyl)azetidin-1-yl)methyl)phenyl)-[1,2,4]triazolo[1,5-a]pyridin-2-yl]cyclopropanecarboxamide]
8 | > 0.05 | 0.02 to 0.05 | – | – | – | – | – | CC(C)C(=O)Nc1nc2cccc(-c3ccc(CN4CC(S(=O)(=O)C5CC5)C4)cc3)n2n1 [Example 5, N-(5-(4-((3-(cyclopropylsulfonyl)azetidin-1-yl)methyl)phenyl)-[1,2,4]triazolo[1,5-a]pyridin-2-yl]isobutyramide]
9 | > 0.05 | > 0.05 | > 0.05 | – | – | – | – | CCS(=O)(=O)C1CN(Cc2ccc(-c3cccn4nc(N)nc34)cc2)C1 [Example 18, 8-(4-((3-(ethylsulfonyl)azetidin-1-yl)methyl)phenyl)-[1,2,4]triazolo[1,5-a]pyridin-2-ylamine]
10 | > 0.05 | 0.02 to 0.05 | 0.02 to 0.05 | – | – | – | – | CS(=O)(=O)C1CN(Cc2ccc(-c3cccc4nc(N)nn34)cc2)C1 [Example 8, 5-(4-((3-(methylsulfonyl)azetidin-1-yl)methyl)phenyl)-[1,2,4]triazolo[1,5-a]pyridin-2-ylamine]
11 | > 0.05 | 0.02 to 0.05 | > 0.05 | – | – | – | – | CS(=O)(=O)C1CN(Cc2c(F)cc(-c3cccc4nc(NC(=O)C5CC5)nn34)cc2F)C1 [Example 3, N-(5-(3,5-difluoro-4-((3-(methylsulfonyl)azetidin-1-yl)methyl)phenyl)-[1,2,4]triazolo[1,5-a]pyridin-2-yl]cyclopropanecarboxamide]
12 | > 0.05 | 0.02 to 0.05 | > 0.05 | – | – | – | – | CCS(=O)(=O)C1CN(Cc2ccc(-c3cccn4nc(NC(=O)C5CC5)nc34)cc2)C1 [Example 11, N-(8-(4-((3-(ethylsulfonyl)azetidin-1-yl)methyl)phenyl)-[1,2,4]triazolo[1,5-a]pyridin-2-yl]cyclopropanecarboxamide]
13 | > 0.05 | 0.02 to 0.05 | > 0.05 | – | – | – | – | CS(=O)(=O)C1CN(Cc2ccc(-c3cccn4nc(NC(=O)C5CC5)nc34)cc2)C1 [Example 9, N-(8-(4-((3-(methylsulfonyl)azetidin-1-yl)methyl)phenyl)-[1,2,4]triazolo[1,5-a]pyridin-2-yl]cyclopropanecarboxamide]
14 | > 0.05 | 0.02 to 0.05 | 0.02 to 0.05 | – | – | – | – | CS(=O)(=O)C1CN(Cc2ccc(-c3cccn4nc(N)nc34)cc2)C1 [Example 17, 8-(4-((3-(methylsulfonyl)azetidin-1-yl)methyl)phenyl)-[1,2,4]triazolo[1,5-a]pyridin-2-ylamine]
15 | > 0.05 | 0.02 to 0.05 | > 0.05 | – | – | – | – | CCS(=O)(=O)C1CN(Cc2ccc(-c3cccn4nc(NC(=O)C(C)C)nc34)cc2)C1 [Example 14, N-(8-(4-((3-(ethylsulfonyl)azetidin-1-yl)methyl)phenyl)-[1,2,4]triazolo[1,5-a]pyridin-2-yl]isobutyramide]
16 | > 0.05 | 0.02 to 0.05 | – | – | – | – | – | CCS(=O)(=O)C1CN(Cc2ccc(-c3cccc4nc(NC(=O)C5CC5)nn34)cc2)C1 [Example 7, N-(5-(4-((3-(ethylsulfonyl)azetidin-1-yl)methyl)phenyl)-[1,2,4]triazolo[1,5-a]pyridin-2-yl]cyclopropanecarboxamide]
17 | > 0.05 | 0.02 to 0.05 | > 0.05 | – | – | – | – | CC(C)C(=O)Nc1nc2c(-c3ccc(CN4CC(S(C)(=O)=O)C4)cc3)cccn2n1 [Example 12]
18 | > 0.05 | > 0.05 | > 0.05 | – | – | – | – | CCS(=O)(=O)C1CN(Cc2ccc(-c3cccc4nc(NC(=O)C(C)C)nn34)cc2)C1 [Example 6, N-(5-(4-((3-(ethylsulfonyl)azetidin-1-yl)methyl)phenyl)-[1,2,4]triazolo[1,5-a]pyridin-2-yl]isobutyramide]
